Experimental data published in patent US6825209B2, “Compounds having unique CB1 receptor binding selectivity and methods for their production and use” (Research Triangle Institute, priority 2002, dated 2004).
Several values for one entry are separate records, joined by “and”; a condition that tells them apart may be missing. Identical values can stand only once. Like-named read-outs stand apart in the source and are kept apart here.

Columns and labels:
human CB2 receptor = biological target: T1, human CB2 receptor (Homo sapiens, UniProt P34972); assay: Displacement of 3H-CP55,940 in human CB2 receptor-transfected cells (CHO-K1); assay type: binding; details: radioligand 3H-CP55940, Tables 6 and 7
T1 construct: expressed in transfected cells; host or cells: CHO-K1
Summary of the method: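 CB2 receptor expressed in CHO-K1 cells; [3H]-CP55,940 displacement with incubation and separation as for rat brain membranes.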

CB1 receptor = biological target: T2, CB1 receptor (Rattus norvegicus, UniProt P20272); assay: Radioligand displacement in whole rat brain (CB1) membrane preparations; assay type: binding; details: Tables 1 and 2
T2 construct: Whole rat brains or dissected regions from live CD rats; tissue Charles River or Pel-Freez Biologicals; host or cells: whole rat brain (CD rats), P2 membrane
Summary of the method: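 Washed P2 membranes from whole rat brain (ca. 0.2 mg/mL) in 50 mM Tris.HCl, 1 mM EDTA, 3 mM MgCl2, pH 7.4 were incubated with radioligand and compound for 1 h at 30 °C, then filtered. IC50 values came from one- or two-site nonlinear fits and were converted to Ki by Cheng-Prusoff. Duplicates were run across 3–6 experiments.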

cannabinoid receptors = biological target: T3, cannabinoid receptors (Mus musculus, UniProt P47746); assay: Mouse vas deferens tissue assay (WIN55212-2 as agonist); details: for % Inverse Effect: in the absence of WIN55212-2; for Dextral Shift: shift of the WIN55212-2 dose response curve
T3 construct: mediated by cannabinoid receptors located on prejunctional neurones; from tissue; host or cells: mouse isolated vas deferens
Description: Pharmacological characterization in isolated mouse vas deferens.
Introduction. The mouse isolated vas deferens can be used to determine both the potency and efficacy (maximum degree of inhibition produced) of cannabinoid receptor agonists. Because of its high sensitivity, this assay usually requires only microgram quantities of test material.
The inhibitory effect of cannabinoids on electrically evoked contractions is thought to be mediated by cannabinoid receptors located on prejunctional neurones rather than on the smooth muscle.
Experimental design. Isolated mouse vasa deferentia were used to determine the potency and efficacy of test compounds as inhibitors of electrically evoked contractions. […] Ability to antagonize was expressed in terms of the association constant (Kb) for the forward reaction between antagonist and cannabinoid receptors.
Methods. […] Electrical field stimulation was between platinum electrodes located at the upper and lower ends of each bath. The stimuli were generated by a Grass S48 stimulator, then amplified (Med-Lab channel attenuator) and finally divided to yield separate outputs to four organ baths (Med-Lab Stimusplitter). All contractions were recorded isometrically.
Concentration-response curves were constructed cumulatively.

CB1 versus CB2 receptors = assay: Relative selectivity of the analogs for CB1 versus CB2 receptors; details: CB1 versus CB2 binding, Tables 1, 6 and 7
Description: Human CB2 receptor affinity. The relative selectivity of the analogs for CB1 versus CB2 receptors varied modestly regardless of the structural modifications examined to date.

[1] = read-out: Ki, displacement of 3H-CP55940, human CB2 transfected cells
[2] = read-out: Ki, displacement of 3H-CP55940, whole rat brain membranes, radioligand 3H-CP55940
[3] = read-out: Ki, displacement of 3H-SR141716A, whole rat brain membranes, radioligand 3H-SR141716A
[4] = whole rat brain membranes, radioligand 3H-CP55940
[5] = whole rat brain membranes, radioligand 3H-SR141716A
[6] = isolated mouse vas deferens, WIN55212-2 as agonist, Schild equation, read-out: Kb
[7] = Ki, displacement of 3H-WIN55212-2, whole rat brain membranes, radioligand 3H-WIN55212-2
[8] = whole rat brain membranes, radioligand 3H-WIN55212-2

T3 sequence (P47746 whole entry): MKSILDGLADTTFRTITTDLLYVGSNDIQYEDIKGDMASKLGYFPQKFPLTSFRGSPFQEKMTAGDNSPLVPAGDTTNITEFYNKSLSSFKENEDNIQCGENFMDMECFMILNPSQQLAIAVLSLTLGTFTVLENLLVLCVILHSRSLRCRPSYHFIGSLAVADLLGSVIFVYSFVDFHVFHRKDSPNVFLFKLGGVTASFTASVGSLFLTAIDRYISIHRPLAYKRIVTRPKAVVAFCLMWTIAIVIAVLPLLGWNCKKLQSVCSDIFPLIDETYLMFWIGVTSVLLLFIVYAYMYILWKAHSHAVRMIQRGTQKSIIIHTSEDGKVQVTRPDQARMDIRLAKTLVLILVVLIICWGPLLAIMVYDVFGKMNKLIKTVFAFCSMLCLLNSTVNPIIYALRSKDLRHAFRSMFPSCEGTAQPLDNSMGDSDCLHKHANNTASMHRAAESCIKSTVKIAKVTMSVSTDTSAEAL
T2 sequence (P20272 whole entry): as the sequence (P47746 whole entry) above, with D95E counted along it
T1 sequence (P34972 whole entry): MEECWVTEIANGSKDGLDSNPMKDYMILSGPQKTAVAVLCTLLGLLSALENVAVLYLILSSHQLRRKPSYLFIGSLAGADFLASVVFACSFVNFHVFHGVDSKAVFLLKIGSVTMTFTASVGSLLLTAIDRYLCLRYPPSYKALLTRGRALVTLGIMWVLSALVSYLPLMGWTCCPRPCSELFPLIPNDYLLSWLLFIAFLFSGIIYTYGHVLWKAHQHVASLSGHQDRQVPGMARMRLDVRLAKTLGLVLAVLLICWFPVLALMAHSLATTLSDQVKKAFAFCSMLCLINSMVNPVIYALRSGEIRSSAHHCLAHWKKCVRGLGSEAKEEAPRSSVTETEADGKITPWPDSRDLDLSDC

Row | SMILES | Max. Disp. %, 3H-CP55940 (human CB2 receptor; human CB2 transfected cells) | Ki (human CB2 receptor; [1]) | Ki (CB1 receptor; [2]) | Ki (CB1 receptor; [3]) | Max. Disp. %, 3H-CP55940 (CB1 receptor; [4]) | Max. Disp. %, 3H-SR141716A (CB1 receptor; [5]) | Kb (cannabinoid receptors; [6]) | % Inverse Effect (cannabinoid receptors; isolated mouse vas deferens) | Dextral Shift (cannabinoid receptors; isolated mouse vas deferens) | Ki (CB1 receptor; [7]) | Max. Disp. %, 3H-WIN55212-2 (CB1 receptor; [8]) | CB1 selectivity (CB1 versus CB2) (CB1 versus CB2 receptors) | Ki (human CB2 receptor; Ki, displacement of 3H-CP55940, human CB2 transfected cells) | Ki (CB1 receptor; Ki, displacement of 3H-CP55940, whole rat brain membranes, radioligand 3H-CP55940) | Ki (CB1 receptor; Ki, displacement of 3H-SR141716A, whole rat brain membranes, radioligand 3H-SR141716A) | Kb (cannabinoid receptors) | Kb (cannabinoid receptors; isolated mouse vas deferens, WIN55212-2 as agonist, Schild equation) | Dextral Shift (cannabinoid receptors; isolated mouse vas deferens, listed as heptyl analog)
1 | Cc1c(C(=O)NN2CCOCC2)nn(-c2ccc(Cl)cc2Cl)c1-c1ccc(Cl)cc1 [MF9725-33D] | 54.5% | 2400 nM | 22.9 nM | 21 nM | 96.2% | 100% | 12.5 nM | 82.5% | 26.3 |  |  |  |  |  |  |  |  | 
2 | CCCCNC(=O)c1nn(-c2ccc(Cl)cc2Cl)c(-c2ccc(Cl)cc2)c1C [MF9725-64-17] | 75.6% | 1600 nM | 13.4 nM | 12.8 nM | 91.9% | 100% | 21.2 nM | 28.2% | no effect | 32.8 nM | 90.8% |  |  |  |  |  |  | 
3 | Cc1c(C(=O)NC(C)C)nn(-c2ccc(Cl)cc2Cl)c1-c1ccc(Cl)cc1 [MF9725-65-11] | 68.3% | 1740 nM | 29.4 nM | 12.9 nM | 88.3% | 100% |  |  |  | 36.1 nM | 90.6% |  |  |  |  |  |  | 
4 | Cc1c(C(=O)NC2CCCCC2)nn(-c2ccc(Cl)cc2Cl)c1-c1ccc(Cl)cc1 [MF9725-66-11] | 84.5% | 228 nM | 2.46 nM | 1.07 nM | 96.1% | 100% | 1.2 nM | 55.5% | 26.7 | 2.23 nM | 92.6% | 93 fold |  |  |  |  |  | 
5 | Cc1c(C(=O)NCC(C)C)nn(-c2ccc(Cl)cc2Cl)c1-c1ccc(Cl)cc1 [MF9725-68-10] | 80.0% | 704 nM | 11.5 nM | 9.22 nM | 96.7% | 100% |  |  |  | 46.4 nM | 90.9% |  |  |  |  |  |  | 
6 | CCCCCCNC(=O)c1nn(-c2ccc(Cl)cc2Cl)c(-c2ccc(Cl)cc2)c1C [MF9725-132-25] | 66.9% | 6870 nM | 18.2 nM | 10.7 nM | 87.3% | 98.6% | 15.4 nM | 30.1% | no effect | 16.6 nM | 77.9% |  |  |  |  |  |  | 
7 | CCCCCCCNC(=O)c1nn(-c2ccc(Cl)cc2Cl)c(-c2ccc(Cl)cc2)c1C [MF9725-133-25] | 47.8% |  |  |  | 81.7% | 97.9% |  | 50.6% and 37.8% |  | 28.8 nM | 69.6% |  | 4030 nM | 46.2 nM | 19 nM | 83.9 nM | no effect | failed to produce an effect
